{"source": "ChEMBL document CHEMBL1156521", "about": "“Three-dimensional structure of the EphB2 receptor in complex with an antagonistic peptide reveals a novel mode of inhibition” (J Biol Chem, 2007)", "note": "Residues, ends and D or L forms follow the SMILES beside them."}
{"target": "T1, Ephrin type-B receptor 2 (Homo sapiens, UniProt P29323)", "T1 sequence (P29323 whole entry)": "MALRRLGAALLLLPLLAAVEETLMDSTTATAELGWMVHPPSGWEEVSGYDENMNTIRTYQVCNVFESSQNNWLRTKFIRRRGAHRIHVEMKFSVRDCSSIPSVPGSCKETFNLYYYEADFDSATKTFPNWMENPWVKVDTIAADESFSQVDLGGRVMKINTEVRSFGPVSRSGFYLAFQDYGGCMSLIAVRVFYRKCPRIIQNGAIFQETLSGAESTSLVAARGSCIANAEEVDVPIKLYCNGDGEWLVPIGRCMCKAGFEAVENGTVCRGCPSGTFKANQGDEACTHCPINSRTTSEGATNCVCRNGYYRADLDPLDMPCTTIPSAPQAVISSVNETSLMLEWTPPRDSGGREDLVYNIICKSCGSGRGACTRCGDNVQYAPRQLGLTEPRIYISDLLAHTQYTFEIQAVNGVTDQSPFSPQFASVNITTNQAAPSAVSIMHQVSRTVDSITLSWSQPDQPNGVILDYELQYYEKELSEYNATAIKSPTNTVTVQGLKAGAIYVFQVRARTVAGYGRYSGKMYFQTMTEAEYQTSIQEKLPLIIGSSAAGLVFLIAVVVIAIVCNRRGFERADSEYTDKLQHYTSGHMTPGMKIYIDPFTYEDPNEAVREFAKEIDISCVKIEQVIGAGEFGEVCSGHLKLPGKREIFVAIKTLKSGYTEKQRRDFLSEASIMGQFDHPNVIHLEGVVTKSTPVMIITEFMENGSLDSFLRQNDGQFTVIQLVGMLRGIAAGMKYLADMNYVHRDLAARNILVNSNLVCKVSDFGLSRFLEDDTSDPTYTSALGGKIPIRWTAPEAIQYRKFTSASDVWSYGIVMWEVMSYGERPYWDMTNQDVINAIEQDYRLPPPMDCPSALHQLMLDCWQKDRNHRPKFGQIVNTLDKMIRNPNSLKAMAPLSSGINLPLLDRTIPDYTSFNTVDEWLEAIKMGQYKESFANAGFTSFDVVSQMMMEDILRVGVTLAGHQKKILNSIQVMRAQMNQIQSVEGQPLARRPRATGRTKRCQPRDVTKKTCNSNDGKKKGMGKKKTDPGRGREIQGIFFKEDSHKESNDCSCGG", "test": "Binding affinity at human EphB2 receptor by isothermal titration calorimetry", "units": {"Kd": "µM"}}
{"smiles": "CC[C@H](C)[C@H](NC(=O)[C@@H]1CCCN1C(=O)CNC(=O)[C@H](CC(N)=O)NC(=O)[C@@H]1CCCN1C(=O)[C@H](CO)NC(=O)[C@H](Cc1ccccc1)NC(=O)[C@H](CC(C)C)NC(=O)[C@H](Cc1ccc(O)cc1)NC(=O)[C@H](CC(N)=O)NC(=O)[C@@H](N)[C@H](C)O)C(=O)N[C@@H](C)C(=O)N[C@@H](CCCN=C(N)N)C(=O)N[C@@H](C)C(=O)N[C@@H](Cc1c[nH]c2ccccc12)C(=O)O", "Kd": "> 50"}
{"smiles": "CC[C@H](C)[C@H](NC(=O)[C@H](Cc1c[nH]c2ccccc12)NC(=O)[C@H](CCC(=O)O)NC(=O)[C@H](CC(N)=O)NC(=O)[C@@H](N)CO)C(=O)N[C@@H](CCC(N)=O)C(=O)N1CCC[C@H]1C(=O)N[C@@H](C)C(=O)N[C@@H](CC(C)C)C(=O)N1CCC[C@H]1C(=O)N[C@@H](CCC(N)=O)C(=O)N[C@@H](Cc1cnc[nH]1)C(=O)O", "note": "(H-SNEWIQPALPQH-OH)", "Kd": "> 50"}
{"smiles": "CC[C@H](C)[C@H](NC(=O)[C@H](Cc1c[nH]c2ccccc12)NC(=O)[C@H](CCC(=O)O)NC(=O)[C@H](CC(N)=O)NC(=O)[C@@H](N)CO)C(=O)N[C@@H](CCC(N)=O)C(=O)N1CCC[C@H]1C(=O)N[C@@H](Cc1cnc[nH]1)C(=O)N[C@@H](CC(C)C)C(=O)N1CCC[C@H]1C(=O)N[C@@H](CCC(N)=O)C(=O)N[C@@H](Cc1cnc[nH]1)C(=O)O", "note": "(H-SNEWIQPHLPQH-OH)", "Kd": "> 50"}
{"smiles": "CC[C@H](C)[C@H](NC(=O)[C@H](Cc1c[nH]c2ccccc12)NC(=O)[C@H](CCC(N)=O)NC(=O)[C@H](CC(N)=O)NC(=O)[C@@H](N)CO)C(=O)NCC(=O)N1CCC[C@H]1C(=O)N[C@@H](C)C(=O)N[C@@H](CC(C)C)C(=O)N1CCC[C@H]1C(=O)N[C@@H](CCC(N)=O)C(=O)N[C@@H](Cc1cnc[nH]1)C(=O)O", "note": "(H-SNQWIGPALPQH-OH)", "Kd": "> 50"}
{"smiles": "CC[C@H](C)[C@H](NC(=O)[C@H](Cc1c[nH]c2ccccc12)NC(=O)[C@H](CCC(N)=O)NC(=O)[C@H](CC(N)=O)NC(=O)[C@@H](N)CO)C(=O)N[C@@H](CC(C)C)C(=O)N1CCC[C@H]1C(=O)N[C@@H](CCCN=C(N)N)C(=O)N[C@@H](CC(C)C)C(=O)N1CCC[C@H]1C(=O)N[C@@H](CCC(N)=O)C(=O)N[C@@H](Cc1cnc[nH]1)C(=O)O", "note": "(H-SNQWILPRLPQH-OH)", "Kd": "> 50"}
{"smiles": "CC[C@H](C)[C@H](NC(=O)[C@H](Cc1c[nH]c2ccccc12)NC(=O)[C@H](CCC(N)=O)NC(=O)[C@H](CC(N)=O)NC(=O)[C@@H](N)CO)C(=O)N[C@@H](CCC(N)=O)C(=O)N1CCC[C@H]1C(=O)N[C@@H](CCCN=C(N)N)C(=O)N[C@@H](CC(C)C)C(=O)N1CCC[C@H]1C(=O)N[C@@H](CCC(N)=O)C(=O)N[C@@H](Cc1cnc[nH]1)C(=O)O", "note": "(H-SNQWIQPRLPQH-OH)", "Kd": "> 50"}
{"smiles": "CC[C@H](C)[C@H](NC(=O)[C@H](Cc1c[nH]c2ccccc12)NC(=O)[C@H](CCC(N)=O)NC(=O)[C@H](CC(N)=O)NC(=O)[C@@H](N)CO)C(=O)N[C@@H](CO)C(=O)N1CCC[C@H]1C(=O)N[C@@H](CCCNC(=N)N)C(=O)N[C@@H](CC(C)C)C(=O)N1CCC[C@H]1C(=O)N[C@@H](CCC(N)=O)C(=O)N[C@@H](Cc1cnc[nH]1)C(=O)O", "note": "(H-SNQWISPRLPQH-OH)", "Kd": "> 50"}
{"target": "T2, Ephrin type-B receptor 2 (Mus musculus, UniProt P54763)", "T2 sequence (P54763 whole entry)": "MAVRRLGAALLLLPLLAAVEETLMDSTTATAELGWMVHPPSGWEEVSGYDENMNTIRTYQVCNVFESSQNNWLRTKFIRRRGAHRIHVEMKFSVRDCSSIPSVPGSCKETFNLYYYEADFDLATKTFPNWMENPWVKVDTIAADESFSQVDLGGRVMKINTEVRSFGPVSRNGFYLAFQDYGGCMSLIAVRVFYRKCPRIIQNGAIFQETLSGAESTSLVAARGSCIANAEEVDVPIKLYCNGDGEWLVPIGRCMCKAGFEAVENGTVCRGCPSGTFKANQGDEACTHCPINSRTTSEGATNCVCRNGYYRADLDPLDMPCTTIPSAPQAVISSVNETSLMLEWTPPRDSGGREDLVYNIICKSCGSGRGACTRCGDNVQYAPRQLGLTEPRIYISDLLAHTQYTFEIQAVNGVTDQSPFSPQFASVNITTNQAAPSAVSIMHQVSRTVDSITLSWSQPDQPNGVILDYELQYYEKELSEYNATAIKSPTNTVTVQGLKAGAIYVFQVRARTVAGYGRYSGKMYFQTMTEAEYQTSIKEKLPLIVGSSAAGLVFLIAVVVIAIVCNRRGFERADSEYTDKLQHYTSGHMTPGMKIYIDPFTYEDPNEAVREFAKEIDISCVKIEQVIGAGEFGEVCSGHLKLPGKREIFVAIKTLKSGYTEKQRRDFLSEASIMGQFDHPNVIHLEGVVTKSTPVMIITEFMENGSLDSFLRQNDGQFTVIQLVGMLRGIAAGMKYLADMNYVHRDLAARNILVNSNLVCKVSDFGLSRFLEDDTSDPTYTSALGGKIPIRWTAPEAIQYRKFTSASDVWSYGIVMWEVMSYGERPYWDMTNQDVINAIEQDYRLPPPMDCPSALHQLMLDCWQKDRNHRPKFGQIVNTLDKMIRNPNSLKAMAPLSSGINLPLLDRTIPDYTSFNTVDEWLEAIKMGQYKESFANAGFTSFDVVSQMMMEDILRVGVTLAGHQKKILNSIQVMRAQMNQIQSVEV", "test": "Binding affinity at mouse EphB2 receptor by ELISA", "units": {"IC50": "µM"}}
{"smiles": "CC[C@H](C)[C@H](NC(=O)[C@H](Cc1c[nH]c2ccccc12)NC(=O)[C@H](CCC(=O)O)NC(=O)[C@H](CC(N)=O)NC(=O)[C@@H](N)CO)C(=O)N[C@@H](CCC(N)=O)C(=O)N1CCC[C@H]1C(=O)N[C@@H](CCCNC(=N)N)C(=O)N[C@@H](CC(C)C)C(=O)N1CCC[C@H]1C(=O)N[C@@H](CCC(N)=O)C(=O)N[C@@H](Cc1cnc[nH]1)C(=O)O", "IC50": 15}
